Values of other authors in patent US8329229B2, “Steam distillation of catmint plants” (E I du Pont de Nemours and Company, priority 2006, dated 2012).

Test system: insect
Details: see U.S. Ser. No. 05/112,166

Structure (SMILES): CC1COC(=O)C2C(C)CCC12 (stereo not shown) [dihydronepetalactone]
- insect repellency: exhibits insect repellency
